Measured values taken from Sander's compilation of Henry's law constants (doi:10.1016/s0045-6535(99)00082-x).

Experiment: Henry solubility constant Hcp at 298.15 K (mol/(m3 Pa))
Conditions: reference: Altschuh et al. (1999)

| SMILES | Henry solubility constant Hcp |
| --- | --- |
| ClC1=C(Cl)[C@]2(Cl)[C@@H]3[C@@H]4C[C@@H]([C@H]5O[C@@H]45)[C@@H]3[C@@]1(Cl)C2(Cl)Cl [dieldrin] | 0.98 |
| CCCCNCCCC [dibutylamine] | 1 |
| Cc1ccc(O)cc1 [1-hydroxy-4-methylbenzene] | > 2.9 |
| ClC1C(Cl)C(Cl)C(Cl)C(Cl)C1Cl (stereo unspecified) [γ-1,2,3,4,5,6-hexachlorocyclohexane] | 1.9 |
| CCC(O)CO (stereo unspecified) [1,2-butanediol] | > 340 |
| C=CC(C)(C)O [2-methyl-3-buten-2-ol] | 0.47 |
| Nc1cccc2ccccc12 [1-naphthylamine] | 160 |
| CCc1ccc2ccccc2c1 [2-ethylnaphthalene] | 0.018 |
| CCCCN [1-butanamine] | 0.56 |
| CC(C)CO [2-methyl-1-propanol] | 1.1 |
| c1ccc2c(c1)cc1ccc3cccc4ccc2c1c34 [benzo[a]pyrene] | 13 |
| c1ccccc1 [benzene] | 0.0037 |
| OC1CCCCCCCCCCC1 [cyclododecanol] | 3.4 |
| ClC1C(Cl)C(Cl)C(Cl)C(Cl)C1Cl (stereo not drawn) [α-1,2,3,4,5,6-hexachlorocyclohexane] | 0.81 |
| CCNc1ccccc1 [(ethylamino)-benzene] | 1 |
| Cc1ccccc1N [2-methylbenzenamine] | 5 |
| CCCCCCO [1-hexanol] | 0.98 |
| ClC1C(Cl)C(Cl)C(Cl)C(Cl)C1Cl (stereo not drawn) [β-1,2,3,4,5,6-hexachlorocyclohexane] | 22 |
| O=[N+]([O-])c1ccccc1 [nitrobenzene] | 1.2 |
| O=[N+]([O-])c1ccc(Cl)c(Cl)c1 [1,2-dichloro-4-nitrobenzene] | 1.2 |
| COc1ccc(C(c2ccc(OC)cc2)C(Cl)(Cl)Cl)cc1 [methoxychlor] | 49 |
| Cc1ccccc1 [methylbenzene] | 0.0017 |

| SMILES | Henry solubility constant Hcp |
| --- | --- |
| O=[N+]([O-])c1cccc(Cl)c1 [3-chloronitrobenzene] | 0.73 |
| CC(C)O [2-propanol] | 0.92 |
| ClC1=C(Cl)C2(Cl)C3C4OC4C(Cl)C3C1(Cl)C2(Cl)Cl (stereo unspecified) [heptachlorepoxide] | 0.47 |
| OCC#CCO [2-butyne-1,4-diol] | > 2000 |
| Cc1cccc(N)c1 [3-methylbenzenamine] | 5.9 |
| Nc1cccc(Cl)c1 [1-amino-3-chlorobenzene] | 9.8 |
| CCCCCCCO [1-heptanol] | 0.86 |
| ClC1=C(Cl)C2(Cl)C3C(Cl)C=CC3C1(Cl)C2(Cl)Cl (stereo unspecified) [heptachlor] | 0.034 |
| OCCCCO [1,4-butanediol] | > 900 |
| CCCO [1-propanol] | 2.7 |
| CN(C)C1CCCCC1 [N,N-dimethylcyclohexylamine] | 0.42 |
| Clc1ccc(C(c2ccc(Cl)cc2)C(Cl)Cl)cc1 [1,1-dichloro-2,2-bis-(4-chlorophenyl)-ethane] | 1.5 |
| CCCCCCCCO [1-octanol] | 0.65 |
| CCCCCCCCCCO [1-decanol] | 0.31 |
| O=[N+]([O-])c1cccc2ccccc12 [1-nitronaphthalene] | 5.6 |
| ClC1=C(Cl)[C@]2(Cl)[C@H]3[C@H]([C@@H]4C=C[C@H]3C4)[C@@]1(Cl)C2(Cl)Cl [aldrin] | 0.22 |
| Cc1ccc([N+](=O)[O-])cc1 [4-nitrotoluene] | 1.8 |
| Cc1cccc(O)c1 [1-hydroxy-3-methylbenzene] | 12 |
| OCc1ccccc1 [(hydroxymethyl)-benzene] | > 37 |
| ClC1=C(Cl)[C@]2(Cl)[C@@H]3[C@H]4C[C@H]([C@@H]5O[C@H]45)[C@@H]3[C@@]1(Cl)C2(Cl)Cl [endrin] | 1.6 |
| NC1CCCCC1 [cyclohexanamine] | 2.4 |
| Cc1ccccc1O [1-hydroxy-2-methylbenzene] | 6.3 |

| SMILES | Henry solubility constant Hcp |
| --- | --- |
| ClC(Cl)=C(c1ccc(Cl)cc1)c1ccc(Cl)cc1 [1,1-dichloro-2,2-bis-(4-chlorophenyl)-ethene] | 0.24 |
| CC1CCCC(O)C1 (stereo unspecified) [3-methylcyclohexanol] | 2.7 |
| Cc1cccc([N+](=O)[O-])c1 [3-nitrotoluene] | 1.1 |
| C#CC(C)(C)O [2-methyl-3-butyn-2-ol] | 2.5 |
| CCCCCCCCCCCCN(C)C [N,N-dimethyl-1-dodecanamine] | > 4 |
| CCO [ethanol] | 1.3 |
| Cc1ccc2ccccc2c1 [2-methylnaphthalene] | 0.016 |
| CCc1cccc2ccccc12 [1-ethylnaphthalene] | 0.014 |
| Nc1ccccc1 [aminobenzene] | 5.2 |
| O=[N+]([O-])c1ccc(Cl)cc1 [4-chloronitrobenzene] | 2 |
| CCCCCCCCCCCCCN [1-tridecanamine] | 0.09 |
| OCCCCc1ccccc1 [4-phenyl-1-butanol] | > 6.7 |
| C=CC(C)(O)CCC=C(C)C (stereo unspecified) [3,7-dimethyl-1,6-octadien-3-ol] | 0.46 |
| OCCc1ccccc1 [2-phenylethanol] | > 37 |
| OCCCc1ccccc1 [3-phenyl-1-propanol] | > 180 |
| Nc1ccc([N+](=O)[O-])cc1Cl [2-chloro-4-nitrobenzenamine] | 1000 |
| Cc1cccc2ccccc12 [1-methylnaphthalene] | 0.019 |
| c1ccc2ccccc2c1 [naphthalene] | 0.018 |
| Nc1ccc([N+](=O)[O-])cc1 [4-nitrobenzenamine] | 8600 |
| Nc1ccccc1[N+](=O)[O-] [2-nitrobenzenamine] | 170 |
| Clc1ccc(C(c2ccc(Cl)cc2)C(Cl)(Cl)Cl)cc1 [1,1,1-trichloro-2,2-bis-(4-chlorophenyl)-ethane] | 1.2 |
| O=[N+]([O-])c1cc(Cl)ccc1Cl [1,4-dichloro-2-nitrobenzene] | 0.82 |
